Data from patent publication US8710104B2, “Catecholic butanes and use thereof for cancer therapy” (Triact Therapeutics, Inc., priority 2008, dated 2014).

Legend:
H1299 NSCLC cells [1] = test: proliferation of H1299 NSCLC cells; type: cell-based
[2] = tested on: subcutaneous HER2 breast tumors (MCNeuA cells); test: MCNeuA syngeneic breast cancer model, tumor growth; type: in vivo, MMTVneu transgenic mice; settings: thrice weekly
Protocol: (§1) MCNeuA cells were implanted in MMTVneu transgenic mice to induce tumor growth. […] Tumor growth was monitored and tumor size was measured at various time points. […] IGF-1R and HER2 phosphorylation were measured by ELISA.

[3] = tested on: H1975 NSCLC cells expressing EGFR T790M mutation; test: proliferation of Iressa-resistant H1975 NSCLC cells; type: cell-based; settings: 10 μM TT-100, 3 days
H1975 NSCLC cells = test: soft agar colony formation, H1975; type: cell-based; settings: 5 μM or 30 μM TT-100, 8 days; reduced more at higher dose
Protocol: (§2) Colony formation was assessed and compared with the control cells grown in the absence of TT-100.

[4] = biological target: T1, kinase domain of the EGFR (Homo sapiens, UniProt P00533); test: RTK activity ELISA, EGFR kinase domain; type: biochemical; settings: ATP 10 μM, PTP1B substrate peptide 0.2 μM, 45 minute reaction
T1 construct: recombinant proteins representing the kinase domain of the IGF-1R or EGFR (Cell Signaling Technology, Danvers, Mass.); purchased Cell Signaling Technology, Danvers, Mass
Protocol: (§3) Inhibition of lipoxygenase activity was determined by use of a lipoxygenase inhibitor screening assay kit (Cayman Chemicals, Ann Arbor, Mich.). […] LOX activity was determined by the amount of hydroperoxides produced, as quantified by colorimetric readout. Inhibition of RTK activity was determined by ELISA as follows. […] The reaction was stopped with 50 mM EDTA, and biotin-conjugated substrate was captured on a 96-well streptavidin-coated plate. Tyrosine phosphorylation of captured substrate was determined by incubation with anti-phosphotyrosine antibody conjugated to HRP (Santa Cruz Biotechnology, Santa Cruz, Calif.) and colorimetric readout on a 96 well plate reader.

H1299 NSCLC cells [5] = test: soft agar colony formation, H1299; type: cell-based; settings: 5 μM or 30 μM TT-100, 8 days; reduced more at higher dose
Protocol: as §2

IGF-1R = biological target: T2, IGF-1R (Mus musculus, UniProt Q60751); test: IGF-1R phosphorylation in excised breast tumors by ELISA; type: in vivo, MMTVneu transgenic mice; settings: tumor excised on day 28, 24 hrs after the final treatment
T2 construct: from tissue; host or cells: excised subcutaneous MCNeuA breast tumours from MMTVneu transgenic mice
Protocol: as §1

HER2 = HER2 phosphorylation in excised breast tumors by ELISA; type: in vivo, MMTVneu transgenic mice; settings: tumor excised on day 28, 24 hrs after the final treatment
Protocol: as §1

[6] = biological target: T3, kinase domain of the IGF-1R (Homo sapiens, UniProt P08069); test: RTK activity ELISA, IGF-1R kinase domain; type: biochemical; settings: ATP 10 μM, IRS-1 substrate peptide 0.2 μM, 45 minute reaction
T3 construct: recombinant proteins representing the kinase domain of the IGF-1R or EGFR (Cell Signaling Technology, Danvers, Mass.); purchased Cell Signaling Technology, Danvers, Mass
Protocol: as §3

ovarian cancer = ovarian cancer patients; topotecan about 1.5 mg/m^2 i.v. days 1-5 of a 21-day course
Source text: This example describes a randomized, blinded, placebo-controlled, multicenter, Phase II study designed to provide a preliminary assessment of the safety and efficacy of combining NDGA with topotecan in patients with ovarian cancer. Approximately about 100—about 800 patients are enrolled, with about 50—about 400 patients being assigned to a treatment group and about 50—about 400 patients assigned to a placebo group. The trial will consist of the administration of intravenous repeating doses of NDGA as described above in Example 11 combined with topotecan at about 1.5 mg/m^2 by intravenous infusion on days 1-5 of a 21-day course, with courses repeating throughout the study. Control patients are administered topotecan with placebo. […] Additional outcome measures are as follows:
Primary outcome measure: progression-free survival.

T1 sequence (P00533 712-979 limits assumed): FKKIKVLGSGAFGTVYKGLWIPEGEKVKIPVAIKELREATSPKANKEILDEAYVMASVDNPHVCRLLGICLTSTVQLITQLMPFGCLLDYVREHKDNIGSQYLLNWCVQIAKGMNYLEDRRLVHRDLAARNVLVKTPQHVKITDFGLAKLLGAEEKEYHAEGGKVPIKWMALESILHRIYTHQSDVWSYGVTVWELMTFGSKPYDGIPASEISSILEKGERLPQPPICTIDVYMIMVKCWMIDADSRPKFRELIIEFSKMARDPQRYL
T3 sequence (P08069 999-1274 limits assumed): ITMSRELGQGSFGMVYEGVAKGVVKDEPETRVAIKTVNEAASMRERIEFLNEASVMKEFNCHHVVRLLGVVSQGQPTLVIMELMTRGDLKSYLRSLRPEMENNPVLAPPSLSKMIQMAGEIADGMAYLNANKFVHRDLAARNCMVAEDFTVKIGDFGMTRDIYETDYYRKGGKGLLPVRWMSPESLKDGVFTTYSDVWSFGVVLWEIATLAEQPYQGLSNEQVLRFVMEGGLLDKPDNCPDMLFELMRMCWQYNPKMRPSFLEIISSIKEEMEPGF
T2 sequence (Q60751 31-1373): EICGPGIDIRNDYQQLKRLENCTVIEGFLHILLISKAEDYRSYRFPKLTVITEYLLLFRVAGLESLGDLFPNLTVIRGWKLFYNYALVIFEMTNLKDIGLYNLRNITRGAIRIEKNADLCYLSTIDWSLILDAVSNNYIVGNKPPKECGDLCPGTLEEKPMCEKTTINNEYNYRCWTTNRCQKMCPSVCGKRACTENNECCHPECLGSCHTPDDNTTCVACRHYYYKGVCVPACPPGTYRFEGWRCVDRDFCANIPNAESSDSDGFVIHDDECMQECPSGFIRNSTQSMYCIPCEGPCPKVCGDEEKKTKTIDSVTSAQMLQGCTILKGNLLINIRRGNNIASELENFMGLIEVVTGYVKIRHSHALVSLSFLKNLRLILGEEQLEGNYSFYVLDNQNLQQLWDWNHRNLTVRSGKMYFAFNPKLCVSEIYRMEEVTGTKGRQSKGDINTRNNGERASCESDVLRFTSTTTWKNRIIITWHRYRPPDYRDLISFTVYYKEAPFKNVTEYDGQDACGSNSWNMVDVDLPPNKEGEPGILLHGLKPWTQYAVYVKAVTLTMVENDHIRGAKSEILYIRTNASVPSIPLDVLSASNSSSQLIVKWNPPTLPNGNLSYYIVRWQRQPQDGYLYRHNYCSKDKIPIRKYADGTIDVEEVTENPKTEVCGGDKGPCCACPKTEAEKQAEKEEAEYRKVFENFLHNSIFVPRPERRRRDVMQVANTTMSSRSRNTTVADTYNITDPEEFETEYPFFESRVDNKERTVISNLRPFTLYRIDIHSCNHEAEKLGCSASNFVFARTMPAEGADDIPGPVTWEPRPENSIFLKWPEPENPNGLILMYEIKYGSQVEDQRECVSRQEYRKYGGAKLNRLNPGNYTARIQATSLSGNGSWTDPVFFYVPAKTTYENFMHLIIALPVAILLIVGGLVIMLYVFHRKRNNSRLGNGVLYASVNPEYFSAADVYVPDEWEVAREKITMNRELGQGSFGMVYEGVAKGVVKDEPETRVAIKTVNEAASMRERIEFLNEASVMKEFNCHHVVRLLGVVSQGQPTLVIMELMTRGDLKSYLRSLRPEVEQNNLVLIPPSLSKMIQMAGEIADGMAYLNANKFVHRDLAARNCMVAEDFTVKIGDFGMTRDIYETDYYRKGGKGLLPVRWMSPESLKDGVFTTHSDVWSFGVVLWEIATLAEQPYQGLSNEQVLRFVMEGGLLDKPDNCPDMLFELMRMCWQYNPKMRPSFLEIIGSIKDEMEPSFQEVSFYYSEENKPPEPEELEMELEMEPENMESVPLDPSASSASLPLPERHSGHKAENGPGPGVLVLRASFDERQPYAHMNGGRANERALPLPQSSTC

COc1cc2ncnc(Nc3ccc(F)c(Cl)c3)c2cc1OCCCN1CCOCC1 [Iressa, Gefitinib, reference compound]
proliferation (percent growth of the control cells), Iressa alone (H1299 NSCLC cells [1]; 1 μM Iressa, 3 days): resistant

CC(Cc1ccc(O)c(O)c1)C(C)Cc1ccc(O)c(O)c1 (stereo not drawn) [TT-100, nordihydroguaiaretic acid]
tumor growth (tumor size) ([2]; 37.5 mg/kg i.p.): inhibited the growth
tumor growth (tumor size) ([2]; 100 mg/kg by gavage (oral)): inhibited the growth
reduction of proliferation (percent growth of the control cells) [3]: approximately 50%
colony formation in soft agar (H1975 NSCLC cells): inhibited colony formation
inhibition of tyrosine kinase activity of purified EGFR [4]: directly inhibits
proliferation (percent growth of the control cells), TT-100 alone (H1299 NSCLC cells [1]; 10 μM or 20 μM TT-100, 3 days, especially at 20 μM): inhibited the proliferation
colony formation in soft agar (H1299 NSCLC cells [5]): inhibited colony formation
IGF-1R receptor phosphorylation compared to vehicle-treated control (IGF-1R): significantly inhibited
HER2 receptor phosphorylation compared to vehicle-treated control (HER2): significantly inhibited
inhibition of tyrosine kinase activity of purified IGF-1R [6]: directly inhibits

CC[C@@]1(O)C(=O)OCc2c1cc1n(c2=O)Cc2cc3c(CN(C)C)c(O)ccc3nc2-1 [topotecan]
progression free survival (goal of the study) (ovarian cancer): 3-6 months
